The target of assay [1] is T1, TRPV1 channel (Rattus norvegicus, UniProt O35433).
T1 construct: expressed in transfected cells
As to the kind of experiment: Intracellular Ca2+ elevation in HEK-293 cells over-expressing rat TRPV1. The assay is classed as cell-based. To be noted: for Emax: HEK293, read-out: Maximal response (% ionomycin). On the procedure: (§1) The applicants have conducted experiments using cannabinoid-containing plant extracts on rat recombinant TRPV1, TRPM8 channels and TRPA1 (also known as ANKTM1) channels, both were stably expressed in HEK293 cells. […] The TRPM8 channel is the receptor from menthol and icilin. The intracellular Ca^2+ concentration was determined before and after the addition of various concentrations of test compounds.
(§2) For the experiments with the TRPM8 channels menthol and icilin were used to activate the channels. For the experiments with the TRPV1 channels ionomycin was used to activate the channels. The cannabinoid-containing plant extracts were produced from cannabis plants using the subcritical CO2 extraction technique as described in the applicants granted United Kingdom patent GB2391865. The cannabinoids were then purified further using the method disclosed in the applicants granted United Kingdom patent GB2393721 to produce substantially pure cannabinoids. Un-purified plant extracts of THC and CBD were also tested in the experiments with the TRPA1 channels.
(§3) HEK293 (human embryonic kidney) cells were plated on 100 mm diameter Petri dishes and transfected at about 80% confluence with Lipofectamine 2000 (Invitrogen) using a plasmid containing the rat TRPA1, TRPV1 or TRPM8 cDNA, according to the manufacturer's protocol. A stably transfected clone was selected by Geneticin G-418 (Invitrogen) 600 μg/ml. Stable transfection was checked by quantitative real time-PCR (RT-PCR).
(§4) TRPA/TRPV1/TRPM8-HEK-293 cells were plated on 100 mm diameter Petri dishes and after 3 days loaded for 1 hour at room temperature with the cytoplasmic calcium indicator Fluo-4-AM (4 μM, Molecular Probes) dissolved in Tyrode' buffer (NaCl 145 mM; KCl 2.5 mM; CaCl2 1.5 mM; MgCl2 1.2 mM; D-Glucose 10 mM; HEPES 10 mM pH 7.4) containing Pluronic (0.02%, Molecular Probes). The cells were washed twice in Tyrode buffer, resuspended and transferred to the quartz cuvette of the spectrofluorimeter (Perkin-Elmer LS 50B) (λ excitation=488 nm; λ emission=516 nm). Intracellular Ca^2+ concentration was determined before and after the addition of various concentrations of test compounds. EC50 values were determined as the concentration of test substances required to produce half-maximal increases in intracellular Ca^2+ concentration. Curve fitting and parameter estimation was performed with Graph Pad Prism®. The same compounds were tested also on non-transfected HEK 293 cells.

Assay [2] deals with T2, TRPA1 channel (Rattus norvegicus, UniProt Q6RI86).
T2 construct: expressed in transfected cells
As to the kind of experiment: Intracellular Ca2+ elevation in HEK-293 cells over-expressing rat TRPA1. It counts as cell-based. On the procedure: as §1, §2, §3, §4

[3] abbreviates: HEK293, TRPA1-HEK-293 cells, relative to mustard oil 100 μM, read-out: Maximal response (% of mustard oil 100 μM).
The mark [4] stands for this setting: TRPA1-HEK-293 cells, Fluo-4, read-out: -logEC50% (M) for the elevation of [Ca2+]i (converted).
The mark [5] stands for this setting: TRPA1, summary of Table 1, read-out: EC50 values (range given).

Read-outs that look alike come from different tables or passages of the source.

T2 sequence (Q6RI86 whole entry): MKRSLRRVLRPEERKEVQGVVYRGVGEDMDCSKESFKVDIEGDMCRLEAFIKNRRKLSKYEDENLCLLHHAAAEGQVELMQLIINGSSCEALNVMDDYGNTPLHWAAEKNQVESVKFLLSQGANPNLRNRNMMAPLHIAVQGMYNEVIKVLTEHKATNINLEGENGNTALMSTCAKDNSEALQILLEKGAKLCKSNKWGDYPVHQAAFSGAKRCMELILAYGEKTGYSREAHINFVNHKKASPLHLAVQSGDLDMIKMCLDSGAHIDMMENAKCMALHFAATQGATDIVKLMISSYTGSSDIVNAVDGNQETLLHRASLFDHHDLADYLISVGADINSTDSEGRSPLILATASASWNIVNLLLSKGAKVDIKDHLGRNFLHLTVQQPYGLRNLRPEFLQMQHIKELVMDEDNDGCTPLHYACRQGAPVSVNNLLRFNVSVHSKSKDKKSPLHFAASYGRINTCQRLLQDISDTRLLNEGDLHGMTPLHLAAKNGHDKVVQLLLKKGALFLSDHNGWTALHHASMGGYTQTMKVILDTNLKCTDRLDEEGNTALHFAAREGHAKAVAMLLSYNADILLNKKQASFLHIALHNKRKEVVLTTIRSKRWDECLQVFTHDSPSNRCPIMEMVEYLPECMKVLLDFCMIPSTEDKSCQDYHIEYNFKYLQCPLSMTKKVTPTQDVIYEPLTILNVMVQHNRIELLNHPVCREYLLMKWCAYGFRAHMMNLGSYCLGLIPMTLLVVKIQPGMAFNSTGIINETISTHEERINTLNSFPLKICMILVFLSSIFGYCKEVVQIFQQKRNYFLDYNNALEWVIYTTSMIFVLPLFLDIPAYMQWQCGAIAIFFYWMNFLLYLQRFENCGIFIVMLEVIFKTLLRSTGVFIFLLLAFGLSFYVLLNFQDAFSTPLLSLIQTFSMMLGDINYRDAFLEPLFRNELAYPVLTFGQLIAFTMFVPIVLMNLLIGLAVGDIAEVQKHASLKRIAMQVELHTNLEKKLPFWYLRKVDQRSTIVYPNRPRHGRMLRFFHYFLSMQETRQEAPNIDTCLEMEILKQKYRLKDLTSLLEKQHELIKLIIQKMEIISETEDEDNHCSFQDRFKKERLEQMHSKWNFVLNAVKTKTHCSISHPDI
T1 sequence (O35433 whole entry): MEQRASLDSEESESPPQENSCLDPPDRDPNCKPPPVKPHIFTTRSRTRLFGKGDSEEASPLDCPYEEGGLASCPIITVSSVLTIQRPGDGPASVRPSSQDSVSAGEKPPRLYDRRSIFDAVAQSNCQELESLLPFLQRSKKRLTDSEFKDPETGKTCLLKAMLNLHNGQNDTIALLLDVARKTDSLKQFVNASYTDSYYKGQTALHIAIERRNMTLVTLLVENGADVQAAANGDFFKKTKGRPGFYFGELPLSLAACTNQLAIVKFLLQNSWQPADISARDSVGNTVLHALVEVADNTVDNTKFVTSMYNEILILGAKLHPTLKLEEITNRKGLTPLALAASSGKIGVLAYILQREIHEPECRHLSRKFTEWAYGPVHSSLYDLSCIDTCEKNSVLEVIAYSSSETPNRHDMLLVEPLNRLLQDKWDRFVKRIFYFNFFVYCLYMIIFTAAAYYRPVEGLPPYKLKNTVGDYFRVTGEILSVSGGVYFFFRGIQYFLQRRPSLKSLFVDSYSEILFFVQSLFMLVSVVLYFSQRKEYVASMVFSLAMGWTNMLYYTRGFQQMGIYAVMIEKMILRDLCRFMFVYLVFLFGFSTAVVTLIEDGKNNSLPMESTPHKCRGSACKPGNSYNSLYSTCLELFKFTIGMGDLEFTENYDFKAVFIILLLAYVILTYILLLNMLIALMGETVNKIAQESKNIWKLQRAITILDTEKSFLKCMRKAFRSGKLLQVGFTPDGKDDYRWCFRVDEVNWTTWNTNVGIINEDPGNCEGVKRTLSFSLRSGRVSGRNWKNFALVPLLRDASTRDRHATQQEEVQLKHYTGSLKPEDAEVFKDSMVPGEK

Consider `CCCCCc1cc(O)c2c(c1)OC(C)(CCC=C(C)C)C=C2` (centres unmarked) [CBC, cannabichromene], for which the EC50 is 24200 nM in assay [1], 3.31e-08 M in assay [2] (setting [4]) and 6e-08 to 1e-07 M in assay [2] (setting [5]). For the same compound, the Emax was 9 ± 4.9% in assay [1] and 118 ± 10% in assay [2] (setting [3]).
For the compound `C=C(C)[C@@H]1CCC(C)=C[C@H]1c1c(O)cc(CCCCC)cc1O` [CBD, cannabidiol], the EC50 in assay [1] is 700 nM; in assay [2] (setting [4]), 8.51e-08 M; in assay [2] (setting [5]) it was 6e-08 to 1e-07 M. Further, the Emax in assay [1] is 50 ± 1%; in assay [2] (setting [3]), 86.9 ± 8%.
`C=C(C)[C@@H]1CCC(C)=C[C@H]1c1c(O)cc(CCCCC)c(C(=O)O)c1O` [CBDA, cannabidiolic acid]: the Emax in assay [2] (setting [3]) came to 48.2 ± 6%. For the same compound, the EC50 in assay [2] (setting [4]) was 8.13e-07 M.
Consider `C=C(C)[C@@H]1CCC(C)=C[C@H]1c1c(O)cc(CCC)cc1O` [CBDV, cannabidivarin], for which, in assay [1], the EC50 amounted to 1400 nM and the Emax was found to be 19.8 ± 1.9%.
Taken in the same sequence, the figures for `CCCCCc1cc(O)c(C/C=C(\C)CCC=C(C)C)c(O)c1` [CBG, cannabigerol] were 1000 nM and 54.4 ± 5.4%.
Take `COc1cc(CNC(=O)CCCC/C=C/C(C)C)ccc1O` [Capsaicin, reference compound]: the Emax in assay [1] was determined as 68.6 ± 1.2%.
As to `O=CC=Cc1ccccc1` [Cinnamaldehyde, cinnamaldehyde, reference compound], the Emax in assay [2] (setting [3]) turned out to be 99.1 ± 9%. Also, the EC50 in assay [2] (setting [4]) was 1.29e-05 M.
For `C=CCN=C=S` [Mustard oil (allyl isothiocyanate), allyl isothiocyanate, reference compound], the Emax at 100 µM in assay [2] (setting [3]) was determined as 100 ± 11%.
Take `CCCCCc1cc(O)c2c(c1)OC(C)(C)[C@@H]1CCC(C)=C[C@@H]21` [THC, tetrahydrocannabinol]: the Emax in assay [2] (setting [3]) came to 117 ± 12%. Moreover, the EC50 in assay [2] (setting [4]) is 1.86e-07 M.
Take `CCCCCc1cc2c(c(O)c1C(=O)O)[C@@H]1C=C(C)CC[C@H]1C(C)(C)O2` [THCA, tetrahydrocannabinolic acid]: in assay [2] (TRPA1-HEK-293 cells, relative to mustard oil 100 μM), the “Maximal response (% of mustard oil 100 μM)” value is listed as 70.1 ± 8%.

Source of the values: patent publication US20100249223A1, “NEW USE FOR CANNABINOID-CONTAINING PLANT EXTRACTS” (priority 2007, published 2010).
